The values below are quoted from earlier work in patent US9044505B2, “Multimeric biotinidase resistant multimodality probes” (priority 2012, dated 2015).

For the data set, the system named is (strept)avidin. Conditions: (strept)avidin-biotin interaction.

`O=C(O)CCCC[C@@H]1SC[C@@H]2NC(=O)N[C@@H]21` [biotin]: the Ka was 10^15 M.
